Measurements taken from patent US20090093069A1, “Topiramate Immunoassays” (ARK Diagnostics, Inc., priority 2007, published 2009).
Like-named read-outs stand apart in the source and are kept apart here.

What was measured:
[1] = test system: antibodies raised with immunogens (10-KLH, 12-KLH, 12-L-KLH, 19-KLH, 22-KLH and 25-KLH); test: Enzyme-based assay format, reactivity of antibodies raised with the immunogens; assay type: binding
Description: All the prepared haptens have utility for KLH and G6PDH bio-conjugation. immunogens (10-KLH, 12-KLH, 12-L-KLH, 19-KLH, 22-KLH and 25-KLH) were used to raise antibodies.

[2] = cited from earlier work
[3] = test system: rabbit polyclonal antibody #11341; test: ARK homogeneous enzyme immunoassay, topiramate calibration curve on HITACHI 917; assay type: binding; details: conjugate 12-G6PDH
Protocol: Rabbit polyclonal antibody […] was used to generate a calibration curve, and evaluate assay precision, accuracy and specificity. The antibody was added into the antibody diluent to prepare the antibody reagent. The antibody reagent consists of antibody as prepared above, buffer, stabilizers, preservatives, and the substrates for the enzyme conjugate NAD and glucose 6 phosphate. Enzyme conjugate comprising compound (12-G6PDH) G6PDH was added into the conjugate reagent to prepare the enzyme conjugate reagent. The enzyme conjugate reagent consists of the conjugate, buffer, stabilizers and preservatives. Enzyme conjugate (12-G6PDH) was used with rabbit polyclonal antibody #11341 in examples below. This technique is generally applicable to produce polyclonal antibodies to diacetonefructose derivatives and assess their utility.
The diacetonefructose derivative antibodies and enzyme conjugates may be advantageously used in a homogeneous assay format to detect topiramate in samples. An enzyme immunoassay or ARK Assay, which is a homogeneous enzyme immunoassay experiment, is performed to test the polyclonal antibodies prepared as in Example 17. The ARK Assay for topiramate is conducted using a liquid, ready-to-use, two-reagent kit. A clinical chemistry analyzer useful to set up the assay is HITACHI 917. The HITACHI 917 is an automated biochemistry analyser used by medical laboratories to process biological fluid specimens, such as urine, cerebrospinal fluid, and most commonly, blood. Manufactured by Boehringer Mannheim, the HITACHI 917 is a commonly used routine chemical bichromatic analyzer. Topiramate containing sample is incubated with antibody reagent followed by the addition of the enzyme conjugate reagent. The enzyme conjugate activity decreases upon binding to the antibody. The enzyme conjugate, which is not bound to the antibody, catalyzes the oxidation of glucose 6-phosphate (G6P). The oxidation of G6P is coupled with the reduction of NAD^+ to NADH, which can be measured at 340 nm. The change in the absorbance at 340 nm can be measured spectrophotometrically. The topiramate concentration in a specimen can be measured in terms of G6PDH activity. The increase in the rate at 340 nm is due to the formation of NADH and is proportional to the enzyme conjugate activity. An assay calibration curve is generated using topiramate spiked into negative calibrator matrix (See Example 19 below). The assay rate increases with increasing the concentration of drug in the sample.
Topiramate was dissolved in methanol to give a stock solution of 1000 μg/mL. Pooled human serum was aliquoted in 10 mL portions. Topiramate stock solution was added to the aliquots of human serum in preparing a series of known concentrations of topiramate calibrators ranging from 0 to 60 μg/mL. Similarly, Quality Control samples were prepared (2.0, 10.0 and 40.0 μg/mL). Antibody Reagent was prepared by adding antibody […] to antibody/substrate diluent. The antibody/substrate reagent was assayed with Enzyme Conjugate Reagent (12-G6PDH). Calibration curves were generated on the HITACHI 917 automated clinical chemistry analyzer, as described in Example 18 by assaying each level in duplicate.

[4] = cited from earlier work; for mean topiramate serum concentration: Lhatoo et al. (2000); for topiramate concentrations: May et al. (2002)
[5] = test system: patients with drug refractory (mostly partial) epilepsy; details: Stephen et al. (2000), 170 patients, cited from earlier work
[6] = test system: serum proteins; details: cited from earlier work
[7] = dose escalation add-on studies, morning serum concentrations

- reactivity of the antibodies [1]: good reactivity
- Reaction Rate (mA/min) Average of Duplicates ([3]; topiramate calibrator 3.5 μg/mL in human serum): 406.0 mA/min
- Reaction Rate (mA/min) Average of Duplicates ([3]; topiramate calibrator 7.5 μg/mL in human serum): 442.4 mA/min
- Reaction Rate (mA/min) Average of Duplicates ([3]; topiramate calibrator 15.0 μg/mL in human serum): 478.3 mA/min
- Reaction Rate (mA/min) Average of Duplicates ([3]; topiramate calibrator 30.0 μg/mL in human serum): 511.6 mA/min
- Reaction Rate (mA/min) Average of Duplicates ([3]; topiramate calibrator 60.0 μg/mL in human serum): 542.4 mA/min
SMILES: CC1(C)O[C@@H]2[C@@H](CO[C@@]3(COS(N)(=O)=O)OC(C)(C)O[C@@H]23)O1 [Topiramate, 2,3:4,5-bis-O-(1-methylethylidene)-β-D-fructopyranose sulfamate]
- change of serum topiramate concentrations ([2]; clearance decreased by propranolol, amitriptyline, lithium, and sumatriptan): slightly increased
- Tmax ([2]; following oral ingestion): 2 to 4 h
- bioavailability ([2]; following oral ingestion): 81-95%
- Vd ([2]; human, in vivo): 0.6 to 1 L/kg
- fraction of the dose metabolized ([2]; human, in vivo): Approximately 50%
- serum half-life ([2]; human, in vivo): 20 to 30 h
- half-life ([2]; patients co-prescribed enzyme-inducing AEDs): about 12 h
- lowering of topiramate concentrations ([2]; with valproic acid): 10-15%
- serum concentrations at which optimal response is most likely ([4]; Christensen et al. (2003), concentration-controlled trial): 2000 to 10000 ng/mL
- serum topiramate concentrations ([4]; Johannessen et al. (2003), patients treated with therapeutic doses, most studies): 5 to 20 mg/L
- mean topiramate serum concentration ([4]; patients in whom topiramate was stopped because of adverse effects): 6 mg/L
- mean topiramate serum concentration ([4]; responders): 7 mg/L
- mean topiramate serum concentration ([4]; seizure-free patients): 9 mg/L
- topiramate concentrations ([4]; considerably higher doses (up to 2000 mg/day)): ≤ 27 mg/L
- topiramate concentrations ([4]; doses of 125-400 mg in addition to other AEDs): 2.4 to 8 mg/L
- serum topiramate concentrations in patients with improvement (trend) ([4]; Penovich et al. (1997), compared with those without seizure reduction): > 10 mg/L
- systemic topiramate concentrations ([4]; considerably higher doses, up to 2000 mg): ≤ 80 µmol·L
- serum concentrations at which a reduction in seizure control was seen [4, 7]: greater than 75 μmol/L
- serum concentrations with significant increase in side effects [4, 7]: > 60 µM
- patients with favorable response ([5]; wide range of doses and serum concentrations): 70%
- patients becoming seizure-free [5]: 23%
- bound to serum proteins [6]: 15%
